# Test results taken from patent US20240116985A1, “STAPLED PEPTIDES AND METHODS THEREOF” (priority 2020, published 2024).
# Like-named read-outs stand apart in the source and are kept apart here.
# How the values were obtained:
# [1] = target: T1, beta-catenin/TCF4 engagement (Homo sapiens, UniProt P35222); experiment: Nano-BRET target engagement assay (B-cat-Halo & TCF4-Luc in HEK293 cells); format: cell-based; conditions: read-out: NanoBRET Abs IC50
# T1 construct: expressed in transfected cells; host or cells: HEK293
# T1 sequence (P35222 1-781): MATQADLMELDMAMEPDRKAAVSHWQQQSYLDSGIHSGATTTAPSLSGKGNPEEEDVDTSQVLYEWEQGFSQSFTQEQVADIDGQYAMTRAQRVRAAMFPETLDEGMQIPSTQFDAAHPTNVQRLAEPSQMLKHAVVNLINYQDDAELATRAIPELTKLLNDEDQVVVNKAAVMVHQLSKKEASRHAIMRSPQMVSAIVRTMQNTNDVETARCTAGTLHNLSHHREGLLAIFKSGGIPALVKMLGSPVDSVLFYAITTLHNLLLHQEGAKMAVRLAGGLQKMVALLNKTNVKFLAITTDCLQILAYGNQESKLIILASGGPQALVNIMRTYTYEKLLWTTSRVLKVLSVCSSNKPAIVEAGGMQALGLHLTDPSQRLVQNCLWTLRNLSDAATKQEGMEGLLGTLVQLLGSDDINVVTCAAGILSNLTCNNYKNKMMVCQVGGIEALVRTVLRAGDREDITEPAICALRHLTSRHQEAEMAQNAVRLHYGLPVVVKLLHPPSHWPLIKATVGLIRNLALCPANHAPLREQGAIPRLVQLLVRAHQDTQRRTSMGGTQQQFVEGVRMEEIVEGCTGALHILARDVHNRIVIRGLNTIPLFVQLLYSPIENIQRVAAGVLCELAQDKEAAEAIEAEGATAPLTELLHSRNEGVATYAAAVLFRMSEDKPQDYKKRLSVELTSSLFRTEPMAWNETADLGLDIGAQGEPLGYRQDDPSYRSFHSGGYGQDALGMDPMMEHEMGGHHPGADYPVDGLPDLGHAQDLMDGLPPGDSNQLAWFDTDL
# [2] = target: T2, full-length beta-Catenin (Uniprot ID P35222) (Homo sapiens, UniProt P35222); experiment: Fluorescence polarization IC50 (beta-catenin / 5FAM-TCF4 10-53 competition); format: binding
# T2 construct: 10 nM full-length beta-Catenin (Uniprot ID P35222)
# T2 sequence (P35222 1-781): T1 sequence (P35222 1-781)
# [3] = fluorescence polarization; read-out: beta-Catenin FP IC50
# [4] = read-out: beta-Catenin FP IC50; fluorescence polarization
IC50 [1] [µM],"IC50 [2, 3] [µM]",SMILES,"IC50 [2, 4] [µM]"
> 20,2.1,"CCCCCCSSCCOC(=O)C[C@@H]1NC(=O)C2(CCCC=CCCCOC(=O)N3CC[C@@](C(=O)N[C@@H](Cc4ccsc4)C(=O)N[C@@H](Cc4csc5ccccc45)C(=O)N[C@@H](CCC(N)=O)C(N)=O)(C3)NC(=O)[C@H](CC(C)C)NC(=O)[C@H](Cc3ccccc3)NC(=O)[C@H](C)NC(=O)[C@H](C)NC(=O)[C@H](CC(=O)O)NC1=O)CCCC=CC[C@]1(CCCN1C(C)=O)C(=O)N[C@@H](CC(=O)O)C(=O)N[C@@H](CC(C)(C)C)C(=O)N2 (stereo partly drawn) [I-1961, Ac-PL3-Asp-Npg-B5-[EtSSHex]AspE-Asp-Ala-Ala-Phe-Leu-PyrS2-3Thi-BztA-Gln-NH2]",–
> 20,1.6,"CCCCCCSSCCOC(=O)C[C@@H]1NC(=O)[C@H](CC(=O)O)NC(=O)C2(CCCC=CCCCOC(=O)N3CC[C@@](C(=O)N[C@@H](Cc4ccsc4)C(=O)N[C@@H](Cc4csc5ccccc45)C(=O)N[C@@H](CCC(N)=O)C(N)=O)(C3)NC(=O)[C@H](CC(C)C)NC(=O)[C@H](Cc3ccccc3)NC(=O)[C@H](C)NC(=O)[C@H](C)NC1=O)CCCC=CC[C@]1(CCCN1C(C)=O)C(=O)N[C@@H](CC(=O)O)C(=O)N[C@@H](CC(C)(C)C)C(=O)N2 (stereo partly drawn) [I-1962, Ac-PL3-Asp-Npg-B5-Asp-[EtSSHex]AspE-Ala-Ala-Phe-Leu-PyrS2-3Thi-BztA-Gln-NH2]",–
25.6,0.326,"CCSSCCOC(=O)C[C@@H]1NC(=O)[C@]2(CC=CCCCC3(CCCC=CCCCOC(=O)N4CC[C@@](C(=O)N[C@@H](Cc5ccsc5)C(=O)N[C@@H](Cc5csc6ccccc56)C(=O)N[C@@H](CCC(N)=O)C(N)=O)(C4)NC(=O)[C@H](CC(C)C)NC(=O)[C@H](Cc4ccccc4)NC(=O)[C@H](C)NC(=O)[C@H](C)NC(=O)[C@H](CC(=O)O)NC(=O)[C@H](CC(=O)O)NC3=O)NC(=O)[C@H](CC(C)(C)C)NC1=O)CCCN2C(C)=O (stereo partly drawn) [I-1963, Ac-PL3-[EtSSEt]AspE-Npg-B5-Asp-Asp-Ala-Ala-Phe-Leu-PyrS2-3Thi-BztA-Gln-NH2]",–
25.2,0.633,"CCSSCCOC(=O)C[C@@H]1NC(=O)[C@H](CC(=O)O)NC(=O)C2(CCCC=CCCCOC(=O)N3CC[C@@](C(=O)N[C@@H](Cc4ccsc4)C(=O)N[C@@H](Cc4csc5ccccc45)C(=O)N[C@@H](CCC(N)=O)C(N)=O)(C3)NC(=O)[C@H](CC(C)C)NC(=O)[C@H](Cc3ccccc3)NC(=O)[C@H](C)NC(=O)[C@H](C)NC1=O)CCCC=CC[C@]1(CCCN1C(C)=O)C(=O)N[C@@H](CC(=O)O)C(=O)N[C@@H](CC(C)(C)C)C(=O)N2 (stereo partly drawn) [I-1965, Ac-PL3-Asp-Npg-B5-Asp-[EtSSEt]AspE-Ala-Ala-Phe-Leu-PyrS2-3Thi-BztA-Gln-NH2]",–
> 20,0.145,"CC(=O)N1CCC[C@]12CC=CCCCC[C@@](C)(C(=O)N[C@@H](CC(=O)O)C(=O)N[C@@H](CC(=O)O)C(=O)N[C@@H](C)C(=O)N[C@@H](C)C(=O)N[C@@H](Cc1ccccc1)C(=O)N[C@@H](CC(C)C)C(=O)NC(C)(C)C(=O)N[C@@H](Cc1ccsc1)C(=O)N[C@@H](Cc1csc3ccccc13)C(=O)N[C@@H](CCC(N)=O)C(N)=O)NC(=O)[C@H](CC(C)(C)C)NC(=O)[C@H](CC(=O)O)NC2=O [I-1978, Ac-PL3-Asp-Npg-S6-Asp-Asp-Ala-Ala-Phe-Leu-Aib-3Thi-BztA-Gln-NH2]",–
> 20,0.236,"CC(=O)N1CCC[C@]12CC=CC[C@@](C)(C(=O)N[C@@H](CC(=O)O)C(=O)N[C@@H](CC(=O)O)C(=O)N[C@@H](C)C(=O)N[C@@H](C)C(=O)N[C@@H](Cc1ccccc1)C(=O)N[C@@H](CC(C)C)C(=O)NC(C)(C)C(=O)N[C@@H](Cc1ccsc1)C(=O)N[C@@H](Cc1csc3ccccc13)C(=O)N[C@@H](CCC(N)=O)C(N)=O)NC(=O)[C@H](CC(C)(C)C)NC(=O)[C@H](CC(=O)O)NC2=O [I-1980, Ac-PL3-Asp-Npg-S3-Asp-Asp-Ala-Ala-Phe-Leu-Aib-3Thi-BztA-Gln-NH2]",–
> 20,0.186,"CC(=O)N1CCC[C@]12CCCC[C@@](C)(C(=O)N[C@@H](CC(=O)O)C(=O)N[C@@H](CC(=O)O)C(=O)N[C@@H](C)C(=O)N[C@@H](C)C(=O)N[C@@H](Cc1ccccc1)C(=O)N[C@@H](CC(C)C)C(=O)NC(C)(C)C(=O)N[C@@H](Cc1ccsc1)C(=O)N[C@@H](Cc1csc3ccccc13)C(=O)N[C@@H](CCC(N)=O)C(N)=O)NC(=O)[C@H](CC(C)(C)C)NC(=O)[C@H](CC(=O)O)NC2=O [I-1983, Ac-PL3-Asp-Npg-S3-Asp-Asp-Ala-Ala-Phe-Leu-Aib-3Thi-BztA-Gln-NH2]",–
7.8,0.032,"CC(=O)N1CCC[C@]12CC=CCCCC1(CCCC=CCCCOC(=O)N3CC[C@@](C(=O)N[C@@H](Cc4ccccc4Cl)C(=O)N[C@@H](Cc4csc5ccccc45)C(=O)N[C@@H](C)C(N)=O)(C3)NC(=O)[C@H](C)NC(=O)[C@H](Cc3ccccc3)NC(=O)[C@H](C)NC(=O)[C@H](C)NC(=O)[C@H](Cc3cccc(C(=O)O)c3)NC(=O)[C@H](CC(=O)O)NC1=O)NC(=O)[C@H](CC(C)(C)C)NC(=O)[C@H](CC(=O)O)NC2=O (stereo partly drawn) [I-2023, Ac-PL3-Asp-Npg-B5-Asp-3COOHF-Ala-Ala-Phe-Ala-PyrS2-2C1F-BztA-Ala-NH2]",–

# The remaining lines, values behind:
SMILES,IC50 [1] [µM],"IC50 [2, 3] [µM]","IC50 [2, 4] [µM]"
"CC(=O)N1CCC[C@]12CC=CCCCC1(CCCC=CCCCOC(=O)N3CC[C@@](C(=O)N[C@@H](Cc4ccsc4)C(=O)N[C@@H](Cc4csc5ccccc45)C(=O)N[C@@H](CCC(N)=O)C(N)=O)(C3)NC(=O)[C@H](CC(C)C)NC(=O)[C@H](Cc3ccccc3)NC(=O)[C@H](C)NC(=O)[C@H](C)NC(=O)[C@H](CCC(=O)OCCSSc3ccccn3)NC(=O)[C@H](CC(=O)O)NC1=O)NC(=O)[C@H](CC(C)(C)C)NC(=O)[C@H](CC(=O)O)NC2=O (stereo partly drawn) [I-1951, Ac-PL3-Asp-Npg-B5-Asp-[EtSSpy]GluE-Ala-Ala-Phe-Leu-PyrS2-3Thi-BztA-Gln-NH2]",> 20,0.264,–
"CC(=O)N1CCC[C@]12CC=CCCCC1(CCCC=CCCCOC(=O)N3CC[C@@](C(=O)N[C@@H](Cc4ccsc4)C(=O)N[C@@H](Cc4csc5ccccc45)C(=O)N[C@@H](CCC(N)=O)C(N)=O)(C3)NC(=O)[C@H](CC(C)C)NC(=O)[C@H](Cc3ccccc3)NC(=O)[C@H](C)NC(=O)[C@H](C)NC(=O)[C@H](CC(=O)O)NC(=O)[C@H](CC(=O)O)NC1=O)NC(=O)[C@H](CC(C)(C)C)NC(=O)[C@H](CC(=O)OCCSSc1ccccc1)NC2=O (stereo partly drawn) [I-1952, Ac-PL3-[EtSSPh]AspE-Npg-B5-Asp-Asp-Ala-Ala-Phe-Leu-PyrS2-3Thi-BztA-Gln-NH2]",> 20,–,0.923
"CC(=O)N1CCC[C@]12CC=CCCCC1(CCCC=CCCCOC(=O)N3CC[C@@](C(=O)N[C@@H](Cc4ccsc4)C(=O)N[C@@H](Cc4csc5ccccc45)C(=O)N[C@@H](CCC(N)=O)C(N)=O)(C3)NC(=O)[C@H](CC(C)C)NC(=O)[C@H](Cc3ccccc3)NC(=O)[C@H](C)NC(=O)[C@H](C)NC(=O)[C@H](CC(=O)O)NC(=O)[C@H](CC(=O)O)NC1=O)NC(=O)[C@H](CC(C)(C)C)NC(=O)[C@H](CC(=O)OCCSSc1ccccc1)NC2=O (stereo partly drawn) [I-1953, Ac-PL3-[EtSSPh]AspE-Npg-B5-Asp-Asp-Ala-Ala-Phe-Leu-PyrS2-3Thi-BztA-Gln-NH2]",> 20,–,0.306
"CC(=O)N1CCC[C@]12CC=CCCCC1(CCCC=CCCCOC(=O)N3CC[C@@](C(=O)N[C@@H](Cc4ccsc4)C(=O)N[C@@H](Cc4csc5ccccc45)C(=O)N[C@@H](CCC(N)=O)C(N)=O)(C3)NC(=O)[C@H](CC(C)C)NC(=O)[C@H](Cc3ccccc3)NC(=O)[C@H](C)NC(=O)[C@H](C)NC(=O)[C@H](CC(=O)O)NC(=O)[C@H](CC(=O)OCCSSc3ccccc3)NC1=O)NC(=O)[C@H](CC(C)(C)C)NC(=O)[C@H](CC(=O)O)NC2=O (stereo partly drawn) [I-1954, Ac-PL3-Asp-Npg-B5-[EtSSPh]AspE-Asp-Ala-Ala-Phe-Leu-PyrS2-3Thi-BztA-Gln-NH2]",> 20,–,0.994
"CC(=O)N1CCC[C@]12CC=CCCCC1(CCCC=CCCCOC(=O)N3CC[C@@](C(=O)N[C@@H](Cc4ccsc4)C(=O)N[C@@H](Cc4csc5ccccc45)C(=O)N[C@@H](CCC(N)=O)C(N)=O)(C3)NC(=O)[C@H](CC(C)C)NC(=O)[C@H](Cc3ccccc3)NC(=O)[C@H](C)NC(=O)[C@H](C)NC(=O)[C@H](CCC(=O)OCCSSc3ccccc3)NC(=O)[C@H](CC(=O)O)NC1=O)NC(=O)[C@H](CC(C)(C)C)NC(=O)[C@H](CC(=O)O)NC2=O (stereo partly drawn) [I-1958, Ac-PL3-Asp-Npg-B5-Asp-[EtSSPh]GluE-Ala-Ala-Phe-Leu-PyrS2-3Thi-BztA-Gln-NH2]",> 20,–,1.54
"CCCCCCSSCCOC(=O)C[C@@H]1NC(=O)[C@]2(CC=CCCCC3(CCCC=CCCCOC(=O)N4CC[C@@](C(=O)N[C@@H](Cc5ccsc5)C(=O)N[C@@H](Cc5csc6ccccc56)C(=O)N[C@@H](CCC(N)=O)C(N)=O)(C4)NC(=O)[C@H](CC(C)C)NC(=O)[C@H](Cc4ccccc4)NC(=O)[C@H](C)NC(=O)[C@H](C)NC(=O)[C@H](CC(=O)O)NC(=O)[C@H](CC(=O)O)NC3=O)NC(=O)[C@H](CC(C)(C)C)NC1=O)CCCN2C(C)=O (stereo partly drawn) [I-1959, Ac-PL3-[EtSSHex]AspE-Npg-B5-Asp-Asp-Ala-Ala-Phe-Leu-PyrS2-3Thi-BztA-Gln-NH2]",> 20,0.412,–
